Reference: US7973069B2 (PTC Therapeutics, Inc., priority 2004, dated 2011)
“And” between values parts separate entries of the source, which are not always exact repeats. Identical values can stand only once.

tested on: HCV replicon; type: cell-based

First: CC(OC(=O)Nc1ccc(-c2c(C#N)c3ccc(OC(F)F)cc3n2CC2CC2)cc1)C1CC1 (stereo not drawn) [Compound 1267]
Second: CCOc1ccc2c(C#N)c(-c3ccc(NC(=O)OCC(C)C)cc3)n(CC3CC3)c2c1 [Compound 1151]
The IC50 of the first is higher: 0.5 to 2 µM for the first, under 0.5 µM for the second. The second is the more potent here.

CCCn1c(-c2ccc(NC(=O)NC(C)CC)cc2)c(C#N)c2ccc(OC)cc21 (stereo not drawn) [Compound 1119] and CCCn1c(-c2ccc(NC(=O)NCC)cc2)c(C#N)c2ccc(OCC)cc21 [Compound 1094] fall in the same range of IC50: 0.5 to 2 µM for the first, 0.5 to 2 µM for the second.

CC(C)OC(=O)Nc1ccc(-c2c(C#N)c3ccc(OCC4CCCO4)cc3n2C2CCC2)cc1 (stereo not drawn) [Compound 1285] and CCOC(=O)Nc1ccc(-c2c(C#N)c3ccc(OCC)cc3n2C2CCC2)cc1 [Compound 971] cannot be ordered by IC50: under 0.5 µM for the first, under 0.5 µM for the second.

Compared with N#Cc1c(-c2ccc(NC(=O)OC3CCCC3)cc2)n(C2CCC2)c2cc(OC(F)F)ccc12 [Compound 1186], N#Cc1c(-c2ccc(NS(=O)(=O)C3CC3)cc2)n(C2CCCC2)c2cc(OC(F)F)ccc12 [Compound 1189] is lower in IC50: 0.5 to 2 µM for the first, under 0.5 µM for the second. The second is the more potent here.

CCn1c(-c2ccc(NC(=O)OCCCl)cc2)c(C#N)c2ccc(OCCCN3CCOCC3)cc21 [Compound 1116] and CCn1c(-c2ccc(NC(=O)NCCCl)cc2)c(C#N)c2ccc(OCCCN3CCOCC3)cc21 [Compound 1126] fall in the same range of IC50: 0.5 to 2 µM for the first, 0.5 to 2 µM for the second.

COc1ccc2c(C#N)c(-c3ccc(NC(=O)NC(C)C)cc3)n(CC3CC3)c2c1 [Compound 987] and CCOC(=O)Nc1ccc(-c2c(C#N)c3ccc(OC)cc3n2CC2CC2)cc1 [Compound 984] fall in the same range of IC50: 0.5 to 2 µM for the first, 0.5 to 2 µM for the second.

CCOC(=O)Nc1ccc(-c2c(C#N)c3ccc(OC(F)F)cc3n2CC)cc1 [Compound 1131] and CCCOC(=O)Nc1ccc(-c2c(C#N)c3ccc(OC(F)F)cc3n2CC)cc1 [Compound 1132] fall in the same range of IC50: 0.5 to 2 µM for the first, 0.5 to 2 µM for the second.

CCCS(=O)(=O)Nc1ccc(-c2c(C#N)c3ccc(OC(F)F)cc3n2C2CCCC2)cc1 [Compound 1188] and CCCS(=O)(=O)Nc1ccc(-c2c(C#N)c3ccc(OCC)cc3n2C2CCCC2)cc1 [Compound 1140] fall in the same range of IC50: 0.5 to 2 µM for the first, 0.5 to 2 µM for the second.

CCCNC(=O)Nc1ccc(-c2c(C#N)c3ccc(OC)cc3n2CC)cc1C [Compound 967] and CCCOC(=O)Nc1ccc(-c2c(C#N)c3ccc(OC)cc3n2CC)cc1C [Compound 965] fall in the same range of IC50: 0.5 to 2 µM for the first, 0.5 to 2 µM for the second.

CCOc1ccc2c(c1)c(C#N)c(-c1ccc(NC(=O)OC(C)CC)cc1)n2C1CCC1 (stereo not drawn) [Compound 1323] and CCOC(=O)Nc1ccc(-c2c(C#N)c3cc(OCC)ccc3n2C2CCC2)cc1 [Compound 1193] cannot be ordered by IC50: under 0.5 µM for the first, under 0.5 µM for the second.

CCNC(=O)Nc1ccc(-c2c(C#N)c3ccc(OCC)cc3n2CC(C)C)cc1 [Compound 1060] and CCNC(=O)Nc1ccc(-c2c(C#N)c3ccc(OCCF)cc3n2CC)cc1 [Compound 954] fall in the same range of IC50: 0.5 to 2 µM for the first, 0.5 to 2 µM for the second.

First: CCOC(=O)Nc1ccc(-c2c(C#N)c3ccc(OC)cc3n2C2CCC2)cc1 [Compound 1073]
Second: CCOc1ccc2c(C#N)c(-c3ccc(NC(=O)OCCCN4CCOCC4)cc3)n(C3CCC3)c2c1 [Compound 1210]
The IC50 of the first is higher: 0.5 to 2 µM for the first, under 0.5 µM for the second.

First: CC(C)NC(=O)Nc1ccc(-c2c(C#N)c3ccc(OCCCN4CCOCC4)cc3n2C2CCC2)cc1 [Compound 1306]
Second: CC(C)NC(=O)Nc1ccc(-c2c(C#N)c3ccc(OCCN4CCC4)cc3n2C2CCC2)cc1 [Compound 1316]
The IC50 of the first is higher: 0.5 to 2 µM for the first, under 0.5 µM for the second. The second is the more potent here.

Compared with CCOc1ccc2c(C#N)c(-c3ccc(NC(=O)CCc4ccccc4)cc3)n(CC)c2c1 [Compound 901], CCCCn1c(-c2ccc(NC(=O)NCCc3ccccc3)cc2)c(C#N)c2ccc(OCC)cc21 [Compound 1019] is lower in IC50: 0.5 to 2 µM for the first, under 0.5 µM for the second. The second is the more potent here.

CCCCNC(=O)Nc1cccc(-c2c(C#N)c3ccc(OCCCN4CCOCC4)cc3n2CC)c1 [Compound 1067] and CCn1c(-c2ccc(NS(=O)(=O)CC)cc2)c(C#N)c2ccc(OCCCN3CCOCC3)cc21 [Compound 1115] fall in the same range of IC50: 0.5 to 2 µM for the first, 0.5 to 2 µM for the second.

First: CCOc1ccc2c(C#N)c(-c3ccc(NP(=O)(OC)OC)cc3)n(CC)c2c1 [Compound 942]
Second: CCOc1ccc2c(C#N)c(-c3ccc(NP(=O)(OCC)OCC)cc3)n(C3CCC3)c2c1 [Compound 936]
The IC50 of the first is higher: 0.5 to 2 µM for the first, under 0.5 µM for the second.

N#Cc1c(-c2ccc(NC(=O)OC3CCCC3)cc2)n(C2CCC2)c2cc(OCc3cccnc3)ccc12 [Compound 1219] and C[C@@H](OC(=O)Nc1ccc(-c2c(C#N)c3ccc(Oc4cnccn4)cc3n2C2CC2)cc1)C1CC1 [Compound 2322] cannot be ordered by IC50: under 0.5 µM for the first, under 0.5 µM for the second.

Compared with CCn1c(-c2ccc(NC(=O)OCCCl)cc2)c(C#N)c2ccc(OCCCN3CCOCC3)cc21 [Compound 1114], CCn1c(-c2ccc(NC(=O)N3CCOCC3)cc2)c(C#N)c2ccc(OC)cc21 [Compound 1087] is higher in IC50: under 0.5 µM for the first, 0.5 to 2 µM for the second.

CCCCNC(=O)Nc1ccc(-c2c(C#N)c3ccc(OCC)cc3n2CCCC)cc1 [Compound 1018] and CCn1c(-c2ccc(NC(=O)NC(C)C)cc2)c(C#N)c2ccc(OCCF)cc21 [Compound 956] cannot be ordered by IC50: under 0.5 µM for the first, under 0.5 µM for the second.

First: CCn1c(-c2ccc(NS(=O)(=O)C3CC3)c(C)c2)c(C#N)c2ccc(OC)cc21 [Compound 962]
Second: CCn1c(-c2ccc(NS(=O)(=O)C3CC3)cc2)c(C#N)c2ccc(OC(F)F)cc21 [Compound 929]
The IC50 of the first is higher: 0.5 to 2 µM for the first, under 0.5 µM for the second. The second is the more potent here.

CCCOC(=O)Nc1ccc(-c2c(C#N)c3ccc(OCCC)cc3n2C(C)C)cc1 [Compound 1203] and CCCOc1ccc2c(C#N)c(-c3ccc(NC(=O)OC4CCOC4)cc3)n(C(C)C)c2c1 (stereo not drawn) [Compound 1249] cannot be ordered by IC50: under 0.5 µM for the first, under 0.5 µM for the second.

CCn1c(-c2ccc(NC(=O)OC(C)C)cc2)c(C#N)c2cc3c(cc21)OCO3 [Compound 1040] and C=CCNC(=O)Nc1ccc(-c2c(C#N)c3cc(OC)ccc3n2CC)cc1 [Compound 1013] fall in the same range of IC50: 0.5 to 2 µM for the first, 0.5 to 2 µM for the second.

CCn1c(-c2ccc(NC(=O)C3CC3)cc2)c(C#N)c2ccc(OCCn3cccn3)cc21 [Compound 1184] and CCn1c(-c2ccc(NC(=O)C3CC3)cc2)c(C#N)c2ccc(OCCN3CCSCC3)cc21 [Compound 1090] fall in the same range of IC50: 0.5 to 2 µM for the first, 0.5 to 2 µM for the second.

C[C@@H](OC(=O)Nc1ccc(-c2cc3ccc(Oc4ncccn4)cc3n2C2CCC2)cc1)C1CC1 [Compound 2341] and COCCN(C)CCOc1ccc2c(C#N)c(-c3ccc(NC(=O)OC(C)C)cc3)n(C3CCC3)c2c1 [Compound 1274] cannot be ordered by IC50: under 0.5 µM for the first, under 0.5 µM for the second.

First: CCOc1ccc2c(C#N)c(-c3ccc(N)cc3)n(C3CC3)c2c1 [Compound 1245]
Second: CCOc1ccc2c(C#N)c(-c3ccc(NS(=O)(=O)C4CC4)cc3)n(C3CCC3)c2c1 [Compound 934]
The IC50 of the first is higher: 0.5 to 2 µM for the first, under 0.5 µM for the second. The second is the more potent here.

CCCS(=O)(=O)Nc1ccc(-c2c(C#N)c3cc(OCC)ccc3n2C2CCC2)cc1 [Compound 1229] and CCCS(=O)(=O)Nc1ccc(-c2c(C#N)c3ccc(OCC)cc3n2C2CCC2)cc1 [Compound 933] fall in the same range of IC50: 0.5 to 2 µM for the first, 0.5 to 2 µM for the second.

Compared with COc1ccc2c(C#N)c(-c3ccc(NS(=O)(=O)C(C)C)cc3)n(CC3CCCC3)c2c1 [Compound 891], N#Cc1c(-c2ccc(NC(=O)NC3CCCC3)cc2)n(C2CCC2)c2cc3c(cc12)OCO3 [Compound 1305] is lower in IC50: 0.5 to 2 µM for the first, under 0.5 µM for the second.

For CCCCNC(=O)Nc1ccc(-c2c(C#N)c3cc(OC)ccc3n2C2CCC2)cc1 [Compound 1164], the IC50 was < 0.5 µM and > 2 µM.
For CCCCNC(=O)Nc1ccc(-c2c(C#N)c3cc(OCC)ccc3n2C2CCC2)cc1 [Compound 1225], the IC50 was 0.5 to 2 µM and < 0.5 µM.
In the case of CCn1c(-c2ccc(N3CCCS3(=O)=O)cc2)c(C#N)c2ccc(OC(F)F)cc21 [Compound 1026], the IC50 is reported as 0.5 to 2 µM and < 0.5 µM.
